Read-outs that look alike come from different tables or passages of the source.
How the values were obtained:
murine melanoma cells = conditions: in vivo administration; cited from earlier work
[1] = system: xenografted human melanoma cells; conditions: immunodeficient mice; cited from earlier work
melanoma = conditions: other melanoma models; cited from earlier work
[2] = system: B-RAF- and K-RAS-induced lung cancer; conditions: mouse models of B-RAF- and K-RAS-induced lung cancer; cited from earlier work
lung NK cells = test: IFNγ production ex vivo in cocultures of lung cells and B16 cells (ELISA); parameters: species or system mouse; conditions: WT mice treated with HDC in vivo; lungs 30 minutes after B16F10 inoculation; coculture with B16 cells
Protocol: Mice were pretreated with HDC (1,500 μg) or PBS on the day before i.v. inoculation of B16F10 cells. Thirty minutes after tumor cell inoculation mice were sacrificed and single-cell lung cell suspensions were prepared. Lung cells were cocultured overnight with B16 cells (500,000 cells/mL) in flat bottom 96-well plates at effector:target cell ratios of 1:1 to 50:1. Supernatants were collected after 24 hours and the IFNγ content was determined by ELISA (Mouse IFNγ DuoSet ELISA, R&D Systems).

B16F10 cells = test: Lung metastasis after i.v. inoculation of B16F10 melanoma cells; type: in vivo, mouse; conditions: for number of lung metastases: 3 weeks
Protocol: (§1) C57BL/6 mice were obtained from The Charles River Laboratories. B6.129S6-Cybb^tm1Din(Nox2^−/− or Nox2-KO) mice that lack the myeloid gp91^phox subunit NOX2 and, thus, a functional ROS-forming NOX2 were obtained from The Jackson Laboratory. […] Naïve C57BL/6, Nox2-KO, and Ifng-KO mice (6-12 weeks of age) were treated intraperitoneally (i.p.) with PBS (control), HDC (Sigma, 1,500 μg/mouse), IL15 (0.04 μg/mouse), alone or combined, on the day before, the day after, and 3 days after intravenous (i.v.) inoculation of B16F10 cells (5×10^4-15×10^4 cells/mouse) or B16F1 cells (20×10^4-30×10^4 cells/mouse). Three weeks after tumor inoculation, mice were euthanized by cervical dislocation followed by harvesting of lungs and spleens. Lung metastasis was determined by counting visible pulmonary metastatic foci under a light microscope. The experimental design is outlined in FIG. 1A.
Gr1^+ cells were depleted by i.p. injections of 400 μg anti-Gr1 antibody (BioXCell, Clone RB6-8C5) 2 days before B16 cell inoculation. […] NK cells were depleted by i.p. injections of 250 μg anti-NK1.1 antibody (BioXCell, Clone PK136) 4 days and 2 days before B16F10 cell inoculation.
Spleens were harvested from WT C57BL/6 mice and single-cell suspensions were prepared. Splenocytes were enriched for NK cells by passage through nylon wool columns (Polysciences). NK cells were then negatively selected using an NK-cell isolation kit II (Miltenyi Biotech) according to the manufacturer's instructions to a purity of >70%. Five million enriched NK cells were injected i.v. 12 hours before inoculation of B16F10 cells. WT NK cells in Ifng^−/− mice were detected 2 days after adoptive transfer by collecting peripheral blood followed by DNA extraction and PCR. The primer pair used for detection of WT Ifng was 5′ […] 3′ (SEQ ID NO:02) and 5′ […] 3′ (SEQ ID NO:03). For detection of the disrupted IFNγ gene (Ifng−/−) the primer pair 5′ […] 3′ (SEQ ID NO:04) and 5′ […] 3′ (SEQ ID NO:05) was used.

CD11b+Gr1+ myeloid cells = conditions: WT mice, HDC 24 hours before B16F10 inoculation
Protocol: (§2) For assessment of the impact of NOX2 inhibition on immune parameters during the early phase of tumor progression, mice received HDC at 1,500 μg/mouse or PBS (control) 1 day before the inoculation of B16F10 cells followed by dissection of lungs at 30 minutes or 24 hours after tumor cell inoculation as shown in FIG. 2A.
(§3) Lung tissues were dissociated into single cells by combining enzymatic degradation of extracellular matrix with mechanical dissociation using gentle MACS Technology (Miltenyi Biotech) based on instructions provided by the manufacturer.
The following fluorochrome-labeled antimouse mAbs were purchased from BD Biosciences: anti-CD45 (30-F11), anti-CD11c (HL3), anti-IaIe (2G9), anti-CD3 (145-2311), anti-CD4 (RM4-5), anti-CD8 (53-6.7), anti-NK1.1 (PK136), anti-CD19 (1D3), anti-CD11b (M1/70), anti-Gr1 (RB6-8C5), anti-CD40 (3/23), and anti-Ly6C (AL-21). Anti-CD33 (29A1.4) was from Ebiosciences; anti-F4/80 (BM8) and anti-CD69 (H1.2F3) were from BioLegend. LIVE/DEAD Fixable Yellow Dead Cell Stain Kit or DAPI (both from Invitrogen) were used as cell viability markers in flow cytometry analyses. A minimum of 100,000 gated live cells were collected on a four-laser BD LSRFortessa (405, 488, 532, and 640 nm). Data were analyzed using FACSDiva Version 8.0.1 software (BD Biosciences).

[3] = system: ROS formation of lung cell suspensions; conditions: mice pretreated with HDC the day before B16 inoculation; PMA; 30 minutes and 24 hours
Protocol: as §2, §3
(§4) Superoxide anion production was determined by use of the isoluminol-electrogenerated chemiluminescence technique as described elsewhere. Briefly, single-cell suspensions of lungs were diluted to 10^7 cells/mL in Krebs-Ringer glucose buffer supplemented with isoluminol (10 mg/mL; Sigma-Aldrich) and horseradish peroxidase (HRP, 4 U/mL, Boehringer) and added to 96-well plates that were incubated at 37° C. Phorbol myristate acetate (PMA, 5×10^−8 M, Sigma-Aldrich) or the formyl peptide receptor agonist Trp-Lys-Tyr-Met-Val-D-Met (WKYMVm) (10^−5 M, Tocris Bioscience) were added for induction of ROS production. Light emission was recorded continuously using a FLUOstar Omega plate reader (BMG). In some experiments, HDC (10-1,000 μmol/L, final concentrations) was added 5 minutes prior to the addition of WKYMVm.

NK cells = conditions: WT mice, 3 weeks after tumor cell inoculation; % of live CD45+ cells
Protocol: as §1

B16F1 cells = conditions: 200,000 cells in WT, 300,000 in Nox2-/- mice; 3 weeks
Protocol: as §1

[4] = system: ROS production of WT lung cells; conditions: in vitro, HDC 10-1,000 μmol/L added 5 minutes before WKYMVm
Protocol: as §4

[5] = Nox2-KO mice, 150,000 B16F10 cells i.v., i.p. treatment days -1, 1, 3
[6] = WT mice, 100,000 B16F10 cells i.v., i.p. treatment days -1, 1, 3 (HDC 1,500 μg/mouse, IL15 0.04 μg/mouse)

Compound | tumorigenicity of murine melanoma cells (murine melanoma cells) | metastasis of xenografted human melanoma cells [1] | lymph node metastasis (melanoma) | tumor progression [2] | IFNγ produced ex vivo by lung NK cells (lung NK cells) | subcutaneous growth of EL-4 thymoma tumors (EL-4 thymoma tumors; Nox2-KO mice) | subcutaneous growth of EL-4 thymoma tumors (EL-4 thymoma tumors; WT mice) | lung metastasis (B16F10 cells; Gr1+-depleted WT mice, B16F10) | antimetastatic efficacy of HDC (B16F10 cells; Ifng-KO mice after adoptive transfer of IFNγ-producing WT NK cells) | antimetastatic efficacy of HDC (B16F10 cells; Ifng-KO mice after adoptive transfer of Ifng-KO NK cells) | melanoma metastasis (B16F10 cells; Ifng-KO mice, B16F10) | number of lung metastases (B16F10 cells; [5]) | number of lung metastases (B16F10 cells; [6]) | melanoma metastasis (B16F10 cells; animals depleted of NK cells (anti-NK1.1), WT and Nox2-/-, B16F10) | degree of influx of myeloid cells into lungs (CD11b+Gr1+ myeloid cells) | ROS formed ex vivo in lung cell suspensions [3] | NK-cell counts in lungs (NK cells) | lung metastasis formation by B16F1 (B16F1 cells) | ROS formation from WT lung cells [4]
CC(=O)N[C@@H](CS)C(=O)O [N-acetyl-cysteine] | reduces the tumorigenicity | accelerates the metastasis | enhances lymph node metastasis | accelerates tumor progression |  |  |  |  |  |  |  |  |  |  |  |  |  |  | 
Cl.Cl.NCCc1c[nH]cn1 [HDC, histamine dihydrochloride] |  |  |  |  | higher concentrations of IFNγ | but not in Nox2-KO mice | reduces the subcutaneous growth | did not affect metastasis | significantly restored the antimetastatic efficacy | but not the transfer of Ifng-KO NK cells | did not reduce melanoma metastasis | not observed | decreased the number of lung metastases | did not inhibit melanoma metastasis | did not alter | reduced | increased NK-cell counts in lungs | NOX2-dependent, antimetastatic effect | dose-dependently suppressed
IL15: NK cell-activating cytokine IL15 |  |  |  |  |  |  |  |  |  |  |  | exerted antimetastatic activity | exerted antimetastatic activity |  |  |  |  |  | 
